Laboratory results: ChEMBL document CHEMBL5038625, “Application of the dual-tail approach for the design and synthesis of novel Thiopyrimidine-Benzenesulfonamide hybrids as selective carbonic anhydrase inhibitors” (Eur J Med Chem, 2022)

Key:
[1] = test system: MCF7; assay: Cell cycle arrest in human MCF7 cells assessed as accumulation at G1 phase incubated for 48 hrs by propidium iodide staining based flow cytometric analysis (reference value: 42.84 %); assay type: functional
[2] = test system: KM12; assay: Antiproliferative activity against human KM12 cells assessed as cell growth inhibition at 10 uM incubated for 24 hrs by sulforhodamine B assay; assay type: functional; details: read-out: GI
[3] = Antiproliferative activity against human […] cells assessed as cell growth inhibition at 10 uM incubated for 24 hrs by sulforhodamine B assay; assay type: functional; details: read-out: GI
[4] = test system: HCT-116; assay: Antiproliferative activity against human HCT-116 cells assessed as reduction in cell viability incubated for 24 hrs by sulforhodamine B assay; details: HCT-116, 24 h
[5] = test system: NCI-H226; assay: Antiproliferative activity against human NCI-H226 cells assessed as cell growth inhibition at 10 uM incubated for 24 hrs by sulforhodamine B assay; assay type: functional; details: read-out: GI
[6] = test system: A549; assay: Antiproliferative activity against human A549 cells assessed as reduction in cell viability incubated for 24 hrs by sulforhodamine B assay; details: A549, 24 h
[7] = test system: SF-295; assay: Antiproliferative activity against human SF-295 cells assessed as cell growth inhibition at 10 uM incubated for 24 hrs by sulforhodamine B assay; assay type: functional; details: read-out: GI
[8] = test system: OVCAR-5; assay: Antiproliferative activity against human OVCAR-5 cells assessed as cell growth inhibition at 10 uM incubated for 24 hrs by sulforhodamine B assay; assay type: functional; details: read-out: GI
[9] = test system: SNB-19; assay: Antiproliferative activity against human SNB-19 cells assessed as cell growth inhibition at 10 uM incubated for 24 hrs by sulforhodamine B assay; assay type: functional; details: read-out: GI
[10] = test system: SF-539; assay: Antiproliferative activity against human SF-539 cells assessed as cell growth inhibition at 10 uM incubated for 24 hrs by sulforhodamine B assay; assay type: functional; details: read-out: GI
[11] = test system: MCF7; assay: Cell cycle arrest in human MCF7 cells assessed as accumulation at G2 phase incubated for 48 hrs by propidium iodide staining based flow cytometric analysis (reference value: 20.73 %); assay type: functional
[12] = test system: CAKI-1; assay: Antiproliferative activity against human CAKI-1 cells assessed as cell growth inhibition at 10 uM incubated for 24 hrs by sulforhodamine B assay; assay type: functional; details: read-out: GI
[13] = test system: K562; assay: Antiproliferative activity against human K562 cells assessed as cell growth inhibition at 10 uM incubated for 24 hrs by sulforhodamine B assay; assay type: functional; details: read-out: GI
[14] = test system: 786-0; assay: Antiproliferative activity against human 786-0 cells assessed as cell growth inhibition at 10 uM incubated for 24 hrs by sulforhodamine B assay; assay type: functional; details: read-out: GI
[15] = test system: OVCAR-8; assay: Antiproliferative activity against human OVCAR-8 cells assessed as cell growth inhibition at 10 uM incubated for 24 hrs by sulforhodamine B assay; assay type: functional; details: read-out: GI
[16] = test system: SK-MEL-2; assay: Antiproliferative activity against human SK-MEL-2 cells assessed as cell growth inhibition at 10 uM incubated for 24 hrs by sulforhodamine B assay; assay type: functional; details: read-out: GI
[17] = test system: SW-620; assay: Antiproliferative activity against human SW-620 cells assessed as cell growth inhibition at 10 uM incubated for 24 hrs by sulforhodamine B assay; assay type: functional; details: read-out: GI
[18] = test system: COLO 205; assay: Antiproliferative activity against human COLO 205 cells assessed as cell growth inhibition at 10 uM incubated for 24 hrs by sulforhodamine B assay; assay type: functional; details: read-out: GI
[19] = test system: SW-620; assay: Antiproliferative activity against human SW-620 cells assessed as reduction in cell viability incubated for 24 hrs by sulforhodamine B assay; details: SW-620, 24 h
[20] = test system: A549; assay: Antiproliferative activity against human A549 cells assessed as cell growth inhibition at 10 uM incubated for 24 hrs by sulforhodamine B assay; assay type: functional; details: read-out: GI
[21] = test system: MCF7; assay: Induction of apoptosis in human MCF cells assessed as late apoptotic cells measured after 48 hrs by Annexin-V-FITC/propidium iodide staining based flow cytometry (reference value: 0.82%); assay type: functional
[22] = test system: SR; assay: Antiproliferative activity against human SR cells assessed as cell growth inhibition at 10 uM incubated for 24 hrs by sulforhodamine B assay; assay type: functional; details: read-out: GI
[23] = test system: SK-OV-3; assay: Antiproliferative activity against human SK-OV-3 cells assessed as cell growth inhibition at 10 uM incubated for 24 hrs by sulforhodamine B assay; assay type: functional; details: read-out: GI
[24] = test system: MDA-MB-231; assay: Induction of apoptosis in human MDA-MB-231 cells assessed as late apoptotic cells measured after 48 hrs by Annexin-V-FITC/propidium iodide staining based flow cytometry (reference value: 0.91%); assay type: functional
[25] = test system: SN12C; assay: Antiproliferative activity against human SN12C cells assessed as cell growth inhibition at 10 uM incubated for 24 hrs by sulforhodamine B assay; assay type: functional; details: read-out: GI
[26] = test system: DU-145; assay: Antiproliferative activity against human DU-145 cells assessed as cell growth inhibition at 10 uM incubated for 24 hrs by sulforhodamine B assay; assay type: functional; details: read-out: GI
[27] = test system: A498; assay: Antiproliferative activity against human A498 cells assessed as cell growth inhibition at 10 uM incubated for 24 hrs by sulforhodamine B assay; assay type: functional; details: read-out: GI
[28] = test system: MCF7; assay: Cell cycle arrest in human MCF7 cells assessed as accumulation at sub G1 phase incubated for 48 hrs by propidium iodide staining based flow cytometric analysis (reference value: 1.09 %); assay type: functional
[29] = test system: T47D; assay: Antiproliferative activity against human T47D cells assessed as cell growth inhibition at 10 uM incubated for 24 hrs by sulforhodamine B assay; assay type: functional; details: read-out: GI
[30] = test system: UACC-62; assay: Antiproliferative activity against human UACC-62 cells assessed as cell growth inhibition at 10 uM incubated for 24 hrs by sulforhodamine B assay; assay type: functional; details: read-out: GI
[31] = test system: SNB-75; assay: Antiproliferative activity against human SNB-75 cells assessed as cell growth inhibition at 10 uM incubated for 24 hrs by sulforhodamine B assay; assay type: functional; details: read-out: GI
[32] = test system: MDA-MB-231; assay: Antiproliferative activity against human MDA-MB-231 cells assessed as cell growth inhibition at 10 uM incubated for 24 hrs by sulforhodamine B assay; assay type: functional; details: read-out: GI
[33] = test system: MDA-MB-231; assay: Cell cycle arrest in human MDA-MB-231 cells assessed as accumulation at sub G1 phase incubated for 48 hrs by propidium iodide staining based flow cytometric analysis (reference value: 0.2 %); assay type: functional
[34] = test system: NCI/ADR-RES; assay: Antiproliferative activity against human NCI-ADR-RES cells assessed as reduction in cell viability incubated for 24 hrs by sulforhodamine B assay
[35] = test system: ACHN; assay: Antiproliferative activity against human ACHN cells assessed as cell growth inhibition at 10 uM incubated for 24 hrs by sulforhodamine B assay; assay type: functional; details: read-out: GI
[36] = test system: PC-3; assay: Antiproliferative activity against human PC-3 cells assessed as cell growth inhibition at 10 uM incubated for 24 hrs by sulforhodamine B assay; assay type: functional; details: read-out: GI
[37] = test system: MCF7; assay: Induction of apoptosis in human MCF cells assessed as early apoptotic cells measured after 48 hrs by Annexin-V-FITC/propidium iodide staining based flow cytometry (reference value: 0.09%); assay type: functional
[38] = test system: HT-29; assay: Antiproliferative activity against human HT-29 cells assessed as reduction in cell viability incubated for 24 hrs by sulforhodamine B assay; details: HT-29, 24 h
[39] = test system: HT-29; assay: Antiproliferative activity against human HT-29 cells assessed as cell growth inhibition at 10 uM incubated for 24 hrs by sulforhodamine B assay; assay type: functional; details: read-out: GI
[40] = test system: UO-31; assay: Antiproliferative activity against human UO-31 cells assessed as cell growth inhibition at 10 uM incubated for 24 hrs by sulforhodamine B assay; assay type: functional; details: read-out: GI
[41] = test system: Malme-3M; assay: Antiproliferative activity against human Malme-3M cells assessed as cell growth inhibition at 10 uM incubated for 24 hrs by sulforhodamine B assay; assay type: functional; details: read-out: GI

Question: What does the source list for `COc1ccc(OC)c(-c2nc(SCC(=O)c3ccc(Br)cc3)nc(Nc3ccc(S(N)(=O)=O)cc3)c2C#N)c1`?
Answer: Activity [1]: 5.77%; inhibition of growth at 10 µM [2]: 79.1%; inhibition of growth at 10 µM [3]: 18.4%; IC50 [4]: 2.5 µM; inhibition of growth at 10 µM [5]: 50%; IC50 [6]: 16.5 µM; inhibition of growth at 10 µM [7]: 66.9%; inhibition of growth at 10 µM [8]: 26.7%; inhibition of growth at 10 µM [9]: 50.1%; inhibition of growth at 10 µM [10]: 71.6%; Activity [11]: 50.47%; inhibition of growth at 10 µM [12]: 65.6%; inhibition of growth at 10 µM [13]: 77.5%; inhibition of growth at 10 µM [14]: 58.6%; inhibition of growth at 10 µM [15]: 37.2%; inhibition of growth at 10 µM [16]: 69.6%; inhibition of growth at 10 µM [17]: 64%; inhibition of growth at 10 µM [18]: 31.6%; IC50 [19]: 4.5 µM; inhibition of growth at 10 µM [20]: 32.5%; Activity [21]: 3.96%; inhibition of growth at 10 µM [22]: 86.1%; inhibition of growth at 10 µM [23]: 20.1%; Activity [24]: 5.2%; inhibition of growth at 10 µM [25]: 50.9%; inhibition of growth at 10 µM [26]: 44.9%; inhibition of growth at 10 µM [27]: 73.6%; Activity [28]: 35.5%; inhibition of growth at 10 µM [29]: 28.9%; inhibition of growth at 10 µM [30]: 57.3%; inhibition of growth at 10 µM [31]: 77.8%; inhibition of growth at 10 µM [32]: 37%; Activity [33]: 11.52%; IC50 [34]: 33.7 µM; inhibition of growth at 10 µM [35]: 44.1%; inhibition of growth at 10 µM [36]: 64.7%; Activity [37]: 0.73%; IC50 [38]: 4.3 µM; inhibition of growth at 10 µM [39]: 72.8%; inhibition of growth at 10 µM [40]: 40.8%; inhibition of growth at 10 µM [41]: 49.8%
